Experimental findings from publication PMC3006138, “Fexinidazole – A New Oral Nitroimidazole Drug Candidate Entering Clinical Development for the Treatment of Sleeping Sickness” (PLoS Neglected Tropical Diseases, 2010) are described below.

Data set [1] has as its system MDR1 (human, transfected). The data set is described as follows: in vitro. The conditions noted are these: dog, MDCK-MDR1, pH 7.4. As to the method: (§1) Caco-2 [36] or MDR1-MDCK (Madin Darby canine kidney cells transfected with the human multidrug resistance MDR1 gene) cell monolayers were grown to confluence on collagen-coated, microporous, polycarbonate membranes in 12-well microtitre plates. The buffer for the donor chamber was Hanks balanced salt solution with 10 mM HEPES and 15 mM glucose at pH 7.4. The buffer in the receiver chamber contained the same with the addition of 1% bovine serum albumin (BSA). The test article was added at 5 µM in the assay buffer. […] After 2 h, duplicate aliquots were taken from the donor and receiver chambers and assayed via LC/MS. The apparent permeability and recovery were calculated using standard methods.
(§2) The objective of this study was to determine the bi-directional MDR1-MDCK permeability and efflux limited absor ption potential of thr ee test compounds. […]
(§3) 4. Th e buff er in th e r ecei ver cha m ber a l so con t a in ed 1% Bovi n e Ser um Al bumin ( BSA) . Th e test compound dosing concentrations were 5 µM in th e a ssay bu f fer . […] After two hours, a l iquot s wer e t a ken fr om th e r ecei ver an d don or cha m ber s. E a ch det erm ina ti on wa s per for m ed in dupl i cat e. Th e Lucifer Yellow flux was also measur ed for each mon olayer after bein g subjected to th e test compoun ds to en sur e n o damage was in flicted to th e cell mon olayer s durin g th e flux per iod. All samples wer e assayed by LC/MS/MS usin g electrospray ionization. Analytical conditions are outlined in Attachment I. The apparent permeability, Papp, and per cen t r ecover y wer e calculated as follows: […]
(§4) dCr /dt is th e slope of th e cumulative con cen tration in th e r eceiver compartment ver sus time in µM s -1. […]

The test system of the next data set is human MDR1. Put plainly: in vitro. The conditions noted are these: dog, MDCK-MDR1, pH 7.4. As to the method: as §1, §2, §3, §4
Another data set can be described thus: in vitro. The conditions noted are these: dog. The method, then:
as §1, §2, §3, §4

Data set [2] deals with MDR1-MDCK cell monolayers. The data set is described as follows: in vitro. As to conditions: MDCK-MDR1. The method, then:
as §1, §2, §3, §4

Data set [3] can be described thus: Stability of drug substance and dosing suspensions. The data set is classed as physicochemical. As to conditions: stability data to date. As to the method:
page 4: […] Pharmacokinetic Report for the study No. 0403-2007 4. METHODS […] […] 4.2. […] The suspensions were stored at +4°C. […] Three samples were analyzed for each suspension. 4.3. […] Blood was taken at […] 4.4.

A short description of data set [4]: 28-day repeated-dose oral toxicity. The data set is classed as in vivo. The method, then: In the rat repeated-dose toxicokinetic study, fexinidazole was administered orally by gavage once a day for 28 consecutive days to ten or fifteen Crl:CD (SD)IGS BR rats/sex/group at doses of 50, 200, or 800 mg/kg/day. A control group received the vehicle alone (5% Tween 80/0.5% methocel). Ten animals/sex/group were sacrificed at the end of the treatment period on day 29 or 30 of study. The remaining 5 animals/sex/group in the control and high-dose groups were sacrificed on day 43 at the end of a 2-weeks observation period. Systemic exposure to fexinidazole and its sulfoxide and sulfone metabolites was evaluated in three additional animals/sex/group. Samples were taken at predose, and 30 min, 1, 2, 4, 8 and 24 h after dosing on days 1, 14, and 28, and in addition at 48 and 72 h after treatment on day 28.
Study Report for NervianoMS Study 0504-2007
Fexinidaxole, a 5-nitroimidazole derivative biologically active against Trypanosoma parasites (T.b. rhodesiense and T.b. brucei ), was administered orally by gavage once daily for 28 consecutive days to ten or fifteen Crl:CD (SD)IGS BR rats/sex/group at doses of 50, 200 and 800 mg/kg/day in a volume of 10 mL/kg.
A control group received the vehicle alone (5% Tween 80 in 0.5% Methyl cellulose 400 cP […]
Ten animals/sex/group were sacrificed at the end of the treatment period on Day 29 or 30 of study. The remaining 5 animals/sex in the control and high-dose groups were sacrificed on Day 43 at the end of a two-week observation period.
Mortality, behavior and general condition were observed daily. Body weight was recorded pretest, and on Days 1, 8, 14, 21, 28, 35 and 42. Food consumption was recorded from Days […]
pre-test, and on Days 28 and 42. Hematological and clinical chemistry examinations and urine analysis were performed on Days 29 and 43.
Post-mortem examinations performed at the end of the treatment period (Day 29 or 30) or the recovery period (Day 43) included necropsy, organ weights and histological […]
Systemic exposure information was obtained from three additional animals/sex/group on Days 1 and 14 at different time-points up to 24 hours after treatment and on Day 28 at different time-points up to 72 hours after treatment.
No meaningful clinical signs or changes in ophthalmoscopic examinations were seen. […]
animals at 200 and 800 mg/kg for the entire treatment period. When treatment was […]
weight gain in comparison with controls.
Nerviano Medical Sciences […]
Humidity 55% +/- 15; monitored
Air Approximately twenty air changes per hour; monitored
Lighting Approximate 12-hour light, 12-hour dark cycle. The lighting cycle could be interrupted for performance of protocol-defined activities.
Water Municipal main, water available ad libitum
Diet 4RF21 GLP pellets ad libitum, supplied by Mucedola
Actual conditions were continuously monitored and recorded, and records were retained.
Release of each lot of feed by the manufacturers was based on analysis of composite samples of each lot, which met specifications set by the manufacturers. Water was periodically analyzed for chemical and microbial impurities. No contaminants were identified in the food or water which were expected to interfere with the results or conclusions of this study.
All the above environmental conditions, as well as all the procedures adopted throughout the study for housing and handling the animals, were in strict compliance with EEC and Italian Guidelines for Laboratory Animal Welfare.
6.2.2. Allocation/Randomization
The animals were selected and distributed into experimental groups using random number tables (Fisher and Yates). The randomization was performed during the pretest period on February 1, 2008 for all animals.
One male animal (No. 2846) assigned to satellite study group for toxicokinetic purposes, found dead on Day 2 of study, was replaced with another one taken from the same arrival batch of animals, in order to maintain the number of three animals/sex/group for subsequent […]
blood samplings. […]

The efflux ratio is the permeability from basolateral to apical divided by that in the opposite direction, in the common usage. In general, Papp B→A refers to how fast a substance crosses the layer from the basolateral side. By Papp A→B is commonly meant the apparent permeability from the apical to the basolateral side of a cell layer. A higher Papp A→B goes with fast passage. A word on the NOAEL: it is the highest dose or exposure tested at which no adverse effect was seen. With `CSc1ccc(OCc2ncc([N+](=O)[O-])n2C)cc1` [Fexinidazole, 1-methyl-2-((p-(methylthio)phenoxy)methyl)-5-nitroimidazole], the efflux ratio at 2 h, 5 µM in data set [1] came out at 0.9. This compound also showed a Papp B→A at 2 h, 5 µM with human MDR1 of 55.1 ×10⁻⁶ cm/s. Moreover, the Papp A→B at 2 h, 5 µM in “in vitro” (MDCK-MDR1, pH 7.4) is 60.6 ×10⁻⁶ cm/s. The recovery at 2 h, 5 µM in “in vitro” (MDCK-MDR1, pH 7.4, Percent Recovery A→B) was 71%. Further, the recovery at 2 h, 5 µM in the data set “in vitro” (MDCK-MDR1, pH 7.4, Percent Recovery B→A) was 77%. In addition, in data set [2], the “Papp B-A / Papp A-B Ratio” value was “no significant efflux”. Besides, the stability entry in data set [3] is “very stable”. In addition, the mortality entry in data set [4] (all groups) is “No compound-related mortality occurred”. In data set [4] (both sexes, Crl:CD (SD)IGS BR, rat, in vivo, po), this compound showed an NOAEL at 28 days of 200 mg/kg/day. In data set [4] (rat, in vivo), the decrease in hemoglobin is given as 8%, the decrease in neutrophils result is “about 46%”, the decrease in triglycerides came to 50% and the increase in globulins entry was “+13%”. For the same compound, in data set [4] (rat, in vivo), the “increase in total cholesterol” value is reported as “+51%”; the liver enzymes entry was “no increase in liver enzymes including AST and ALT”; the liver histopathology entry was “Minimal to slight hypertrophy of the centrilobular hepatocytes”.
